Measured values published in patent US10385057B2, “Pyrazole compounds and methods of making and using same” (Lundbeck La Jolla Research Center, Inc., priority 2015, dated 2019).

Experiments:
MAGL = molecular target: T1, MAGL (Mus musculus, UniProt O35678); assay: In vitro competitive activity-based protein profiling, mouse MAGL; type: biochemical; conditions: for inhibition at 1 µM: read-out: MAGL % inh. 1 μM (mouse)
T1 construct: mouse brain membrane fraction or cell lysates for mouse assays; from tissue
T1 sequence (O35678 1-303): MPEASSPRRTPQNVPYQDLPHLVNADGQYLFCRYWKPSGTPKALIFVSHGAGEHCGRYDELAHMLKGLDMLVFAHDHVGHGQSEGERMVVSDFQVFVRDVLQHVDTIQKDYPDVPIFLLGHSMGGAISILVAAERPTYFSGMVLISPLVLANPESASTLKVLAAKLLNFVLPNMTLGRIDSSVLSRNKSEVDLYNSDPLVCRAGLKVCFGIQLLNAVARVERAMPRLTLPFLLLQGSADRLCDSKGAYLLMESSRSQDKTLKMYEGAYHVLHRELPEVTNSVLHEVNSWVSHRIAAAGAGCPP
Description: (§1) In Vitro Competitive Activity-Based Protein Profiling.
(§2) Proteomes (mouse brain membrane fraction or cell lysates for mouse assays; human prefrontal cortex or cell membrane fractions for human assays) (50 μL, 1.0 mg/mL total protein concentration) were preincubated with varying concentrations of inhibitors at 37° C. After 30 min, FP-Rh or HT-01 (1.0 μL, 50 μM in DMSO) was added and the mixture was incubated for another 30 min at 37° C. Reactions were quenched with SDS loading buffer (15 μL—4×) and run on SDS-PAGE. Following gel imaging, serine hydrolase activity was determined by measuring fluorescent intensity of gel bands corresponding to MAGL and FAAH using ImageJ 1.43u software.

FAAH = molecular target: T2, FAAH (Mus musculus, UniProt O08914); assay: In vitro competitive activity-based protein profiling, mouse FAAH; type: biochemical; conditions: for inhibition at 1 µM: read-out: FAAH % inh. 1 μM (mouse)
T2 construct: mouse brain membrane fraction or cell lysates for mouse assays; from tissue
T2 sequence (O08914 1-579): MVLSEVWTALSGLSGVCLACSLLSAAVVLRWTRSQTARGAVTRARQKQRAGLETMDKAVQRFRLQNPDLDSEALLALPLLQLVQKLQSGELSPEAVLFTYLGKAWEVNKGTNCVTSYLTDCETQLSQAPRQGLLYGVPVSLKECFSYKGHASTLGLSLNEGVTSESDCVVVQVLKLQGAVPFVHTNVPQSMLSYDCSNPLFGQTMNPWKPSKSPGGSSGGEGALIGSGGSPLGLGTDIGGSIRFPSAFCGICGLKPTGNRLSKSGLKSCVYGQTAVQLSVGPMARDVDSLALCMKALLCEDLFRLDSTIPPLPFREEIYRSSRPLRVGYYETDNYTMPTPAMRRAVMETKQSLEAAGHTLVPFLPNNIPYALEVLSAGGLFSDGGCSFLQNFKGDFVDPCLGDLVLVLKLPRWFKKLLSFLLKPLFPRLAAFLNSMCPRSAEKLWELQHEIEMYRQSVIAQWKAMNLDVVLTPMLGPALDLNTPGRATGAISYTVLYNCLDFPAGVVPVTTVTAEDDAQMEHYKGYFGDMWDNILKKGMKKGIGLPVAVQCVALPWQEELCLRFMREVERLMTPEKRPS
Description: as §1, §2

Row | SMILES | IC50 (MAGL) | inhibition at 1 µM (MAGL) | IC50 (FAAH) | inhibition at 1 µM (FAAH) | inhibition at 10 µM (MAGL; 10 μM, read-out: MAGL % inh. at 10 μM (mouse)) | inhibition at 10 µM (FAAH; 10 μM, read-out: FAAH % inh. at 10 μM (mouse))
1 | O=C(N1C[C@H]2C[C@@H](NCc3ccccc3Cl)C[C@H]2C1)n1cc(Cl)cn1 [Example 61, (4-chloro-1H-pyrazol-1-yl)(cis-5-((2-chlorobenzyl)amino)hexahydrocyclopenta[c]pyrrol-2(1H)-yl)methanone] | 100 to 1000 nM | ≥ 75% | 100 to 1000 nM | ≥ 75% | – | –
2 | CN(Cc1ccc(C(F)(F)F)c(N2CCCC2)c1)[C@@H]1C[C@@H]2CN(C(=O)n3cc(C(N)=O)cn3)C[C@@H]2C1 [Example 221, 1-(cis-5-(methyl(3-(pyrrolidin-1-yl)-4-(trifluoromethyl)benzyl)amino)octahydrocyclopenta[c]pyrrole-2-carbonyl)-1H-pyrazole-4-carboxamide] | – | ≥ 75% | – | ≥ 75% | – | –
3 | O=C(c1cnn(C(=O)N2CC3CN(Cc4cc(Cl)cc(C(F)(F)F)c4)CC3C2)c1)N1CCN(C2CC2)CC1 (centres unmarked) [Example 11, (5-(3-chloro-5-(trifluoromethyl)benzyl)hexahydropyrrolo[3,4-c]pyrrol-2(1H)-yl)(4-(4-cyclopropylpiperazine-1-carbonyl)-1H-pyrazol-1-yl)methanone] | – | ≥ 75% | – | ≥ 75% | – | –
4 | CN(Cc1ccc(C(F)(F)F)cc1)[C@@H]1C[C@@H]2CN(C(=O)n3cc(C(=O)N4CCCC4)cn3)C[C@@H]2C1 [Example 97, (cis-5-(methyl(4-(trifluoromethyl)benzyl)amino)hexahydrocyclopenta[c]pyrrol-2(1H)-yl)(4-(pyrrolidine-1-carbonyl)-1H-pyrazol-1-yl)methanone] | – | 50 to 75% | – | ≥ 75% | – | –
5 | CC(=O)N(Cc1ccccc1Cl)[C@@H]1C[C@@H]2CN(C(=O)n3cc(Cl)cn3)C[C@@H]2C1 [Example 62, N-(cis-2-(4-chloro-1H-pyrazole-1-carbonyl)octahydrocyclopenta[c]pyrrol-5-yl)-N-(2-chlorobenzyl)acetamide] | 100 to 1000 nM | ≥ 75% | 100 to 1000 nM | ≥ 75% | – | –
6 | CN(Cc1ccc(N2CCOCC2)cc1)[C@H]1C[C@@H]2CN(C(=O)n3cc(Cl)cn3)C[C@@H]2C1 [Example 79, (4-chloro-1H-pyrazol-1-yl)(trans-5-(methyl(4-morpholinobenzyl)amino)hexahydrocyclopenta[c]pyrrol-2(1H)-yl)methanone] | – | 50 to 75% | – | ≥ 75% | – | –
7 | CN(Cc1ccccc1Cl)[C@H]1C[C@@H]2CN(C(=O)n3cc(C(=O)N4CCOCC4)cn3)C[C@@H]2C1 [Example 86, (trans-5-((2-chlorobenzyl)(methyl)amino)hexahydrocyclopenta[c]pyrrol-2(1H)-yl)(4-(morpholine-4-carbonyl)-1H-pyrazol-1-yl)methanone] | – | 50 to 75% | – | ≥ 75% | – | –
8 | O=C(N1CCC2(CCN(Cc3cccc(C(F)(F)F)c3)C2)C1)n1cc(C(F)(F)F)cn1 (centres unmarked) [Example 172, (4-(trifluoromethyl)-1H-pyrazol-1-yl)(7-(3-(trifluoromethyl)benzyl)-2,7-diazaspiro[4.4]nonan-2-yl)methanone] | ≤ 100 nM | ≥ 75% | ≤ 100 nM | ≥ 75% | – | –
9 | O=C(N1CCC2(CCN(Cc3ccc(C(F)(F)F)cc3)C2)C1)n1cc(Cl)cn1 (centres unmarked) [Example 128, (4-chloro-1H-pyrazol-1-yl)(7-(4-(trifluoromethyl)benzyl)-2,7-diazaspiro[4.4]nonan-2-yl)methanone] | 100 to 1000 nM | ≥ 75% | 100 to 1000 nM | ≥ 75% | – | –
10 | O=C(c1cnn(C(=O)N2CCC3(CCN(Cc4cccc(C(F)(F)F)c4)C3)C2)c1)N1CCOCC1 (centres unmarked) [Example 32, (4-(morpholine-4-carbonyl)-1H-pyrazol-1-yl)(7-(3-(trifluoromethyl)benzyl)-2,7-diazaspiro[4.4]nonan-2-yl)methanone] | – | 0 to 25% | – | ≥ 75% | 50% | 100%
11 | CC1COCCN1c1cc(F)ccc1CN1CC2CN(C(=O)n3cc(Cl)cn3)CC2C1 (centres unmarked) [Example 104, (4-chloro-1H-pyrazol-1-yl)(5-(4-fluoro-2-(3-methylmorpholino)benzyl)hexahydropyrrolo[3,4-c]pyrrol-2(1H)-yl)methanone] | – | ≥ 75% | – | ≥ 75% | – | –
12 | CC(=O)N1CCN(c2cc(C(C)C)ccc2CN2CC3CN(C(=O)n4cc(Cl)cn4)CC3C2)CC1 (centres unmarked) [Example 109, 1-(4-(2-((5-(4-chloro-1H-pyrazole-1-carbonyl)hexahydropyrrolo[3,4-c]pyrrol-2(1H)-yl)methyl)-5-isopropylphenyl)piperazin-1-yl)ethan-1-one] | ≤ 100 nM | ≥ 75% | 1000 to 10000 nM | 0 to 25% | – | –
13 | O=C(N1CCC2(CCN(Cc3cccc(N4CCOCC4)c3)C2)C1)n1cc(C(F)(F)F)cn1 (centres unmarked) [Example 175, (7-(3-morpholinobenzyl)-2,7-diazaspiro[4.4]nonan-2-yl)(4-(trifluoromethyl)-1H-pyrazol-1-yl)methanone] | – | ≥ 75% | – | ≥ 75% | – | –
14 | O=C(c1cnn(C(=O)N2CCC3(CCN(Cc4cc(Cl)cc(C(F)(F)F)c4)C3)C2)c1)N1CCCC1 (centres unmarked) [Example 34, (1-(7-(3-chloro-5-(trifluoromethyl)benzyl)-2,7-diazaspiro[4.4]nonane-2-carbonyl)-1H-pyrazol-4-yl)(pyrrolidin-1-yl)methanone] | – | ≥ 75% | – | ≥ 75% | – | –
15 | NC(=O)c1cnn(C(=O)N2CCC3(CCN(Cc4ccc(-c5nccs5)cc4Cl)C3)C2)c1 (centres unmarked) [Example 201, 1-(7-(2-chloro-4-(thiazol-2-yl)benzyl)-2,7-diazaspiro[4.4]nonane-2-carbonyl)-1H-pyrazole-4-carboxamide] | – | ≥ 75% | – | ≥ 75% | – | –
16 | NC(=O)c1cnn(C(=O)N2CCC3(CCN(Cc4ccc(N5CCCC5)cc4C(F)(F)F)C3)C2)c1 (centres unmarked) [Example 203, 1-(7-(4-(pyrrolidin-1-yl)-2-(trifluoromethyl)benzyl)-2,7-diazaspiro[4.4]nonane-2-carbonyl)-1H-pyrazole-4-carboxamide] | – | ≥ 75% | – | ≥ 75% | – | –
17 | CN(Cc1cc(C(F)(F)F)ccc1Cl)[C@@H]1C[C@@H]2CN(C(=O)n3cc(C(N)=O)cn3)C[C@@H]2C1 [Example 218, 1-(cis-5-((2-chloro-5-(trifluoromethyl)benzyl)(methyl)amino)octahydrocyclopenta[c]pyrrole-2-carbonyl)-1H-pyrazole-4-carboxamide] | – | ≥ 75% | – | ≥ 75% | – | –
18 | O=C(N1CCC2(CCN(Cc3ccccc3N3CCOCC3)C2)C1)n1cc(C(F)(F)F)cn1 (centres unmarked) [Example 182, 2-{[2-(morpholin-4-yl)phenyl]methyl}-7-{[4-(trifluoromethyl)-1H-pyrazol-1-yl]carbonyl}-2,7-diazaspiro[4.4]nonane] | – | ≥ 75% | – | 25 to 50% | – | –
19 | CN(Cc1cc(N2CCCC2)cc(C(F)(F)F)c1)[C@@H]1C[C@@H]2CN(C(=O)n3cc(C(N)=O)cn3)C[C@@H]2C1 [Example 222, 1-(cis-5-(methyl(3-(pyrrolidin-1-yl)-5-(trifluoromethyl)benzyl)amino)octahydrocyclopenta[c]pyrrole-2-carbonyl)-1H-pyrazole-4-carboxamide] | – | ≥ 75% | – | ≥ 75% | – | –
20 | NC(=O)c1cnn(C(=O)N2CCC3(CCN(Cc4ccc(Cl)c(Cl)c4)C3)C2)c1 (centres unmarked) [Example 202, 1-(7-(3,4-dichlorobenzyl)-2,7-diazaspiro[4.4]nonane-2-carbonyl)-1H-pyrazole-4-carboxamide] | – | ≥ 75% | – | ≥ 75% | – | –
21 | O=C(N1CC2CN(Cc3ccc(Cl)cc3N3CCCC3)CC2C1)n1cc(Cl)cn1 (centres unmarked) [Example 101, (4-chloro-1H-pyrazol-1-yl)(5-(4-chloro-2-(pyrrolidin-1-yl)benzyl)hexahydropyrrolo[3,4-c]pyrrol-2(1H)-yl)methanone] | ≤ 100 nM | ≥ 75% | 100 to 1000 nM | ≥ 75% | – | –
